Patent US20150174144A1, “TETRACYCLINE COMPOUNDS FOR TREATING NEURODEGENERATIVE DISORDERS” (PARATEK PHARMACEUTICALS, INC., priority 2012, published 2015)
pIC50: −log10 of the molar value.

What was measured:
[1] = system: MOG peptide-induced EAE; experiment: MOG peptide-induced EAE in mice; assay type: in vivo, C57BL/6 mouse; settings: mouse, i.p. daily from day 10
Description: (§1) The inhibitory activity of Compound 1 was characterized in both mouse and rat models of EAE. Mice were immunized s.c. with myelin oligodendrocyte glycoprotein (MOG) peptide 35-55 in CFA and later injected i.v. with Pertussis toxin. Mice were randomized at day 10 and given compound i.p. Compounds were subsequently administered daily and the animals assessed for clinical score. Mice were scored as follows: 0=no disease; 1=limp tail; 2=paralysis of one or both hind limbs; 4=paralysis of both hind- and forelimbs. […] Rats were dosed daily i.p. with compound starting day 9. Rats were scored daily and cumulative scores were determined by adding the average daily scores over the experimental period. […] The average daily scores+/−SEM and the cumulative average scores are shown. Cumulative average scores were determined by adding the average daily scores over the experimental period.

[2] = Genotoxicity; settings: pre-clinical safety studies
[3] = biological target: hERG/ion channel (Homo sapiens, UniProt Q12809); experiment: hERG/ion channel assays; settings: pre-clinical safety studies
Sequence of hERG/ion channel (Q12809 whole entry): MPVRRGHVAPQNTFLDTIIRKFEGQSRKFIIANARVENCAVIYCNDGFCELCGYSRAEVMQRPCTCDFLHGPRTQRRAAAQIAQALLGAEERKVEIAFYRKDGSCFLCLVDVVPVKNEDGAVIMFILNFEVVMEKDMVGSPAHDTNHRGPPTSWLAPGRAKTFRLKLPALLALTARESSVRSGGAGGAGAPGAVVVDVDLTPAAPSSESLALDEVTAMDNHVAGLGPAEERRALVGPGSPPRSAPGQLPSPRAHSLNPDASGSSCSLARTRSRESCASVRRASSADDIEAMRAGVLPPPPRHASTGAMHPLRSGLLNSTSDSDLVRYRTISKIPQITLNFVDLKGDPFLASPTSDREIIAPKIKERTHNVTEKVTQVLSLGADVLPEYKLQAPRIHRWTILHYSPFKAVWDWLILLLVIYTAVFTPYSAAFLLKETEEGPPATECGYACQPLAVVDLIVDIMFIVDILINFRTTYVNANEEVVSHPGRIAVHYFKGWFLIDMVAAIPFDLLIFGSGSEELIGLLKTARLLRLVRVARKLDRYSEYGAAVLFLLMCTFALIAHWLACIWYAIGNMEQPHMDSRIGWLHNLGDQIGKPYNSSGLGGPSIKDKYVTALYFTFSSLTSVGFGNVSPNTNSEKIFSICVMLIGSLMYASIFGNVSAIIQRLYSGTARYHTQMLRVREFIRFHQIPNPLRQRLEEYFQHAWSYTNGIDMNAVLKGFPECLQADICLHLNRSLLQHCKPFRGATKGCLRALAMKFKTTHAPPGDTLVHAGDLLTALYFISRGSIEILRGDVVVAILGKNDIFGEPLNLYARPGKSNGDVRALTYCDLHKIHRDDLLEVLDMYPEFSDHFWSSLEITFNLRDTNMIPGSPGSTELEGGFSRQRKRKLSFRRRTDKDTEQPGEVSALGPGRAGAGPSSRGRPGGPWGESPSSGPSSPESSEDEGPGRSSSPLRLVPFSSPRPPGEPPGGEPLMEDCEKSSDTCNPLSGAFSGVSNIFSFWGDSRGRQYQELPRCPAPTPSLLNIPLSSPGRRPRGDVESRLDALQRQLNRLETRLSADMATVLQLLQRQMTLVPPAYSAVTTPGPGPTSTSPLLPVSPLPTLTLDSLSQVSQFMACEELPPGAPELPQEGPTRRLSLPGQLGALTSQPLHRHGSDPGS

[4] = 14-day acute toxicity and 28-day toxicology study in rats; assay type: in vivo
Experimental: The compound was also shown to be negative in a GLP phototoxicity assay. […] Both 14-day acute toxicity and 28-day toxicology study were performed in rats with Compound 1 along with minocycline for comparison. Animals were administered daily oral doses from 15 to 150 mg/kg for up to 4 weeks followed by a recovery period.

[5] = system: ferric iron-induced lipid peroxidation among rat brain tissue; experiment: Ferric iron-induced lipid peroxidation in rat brain tissue; assay type: biochemical
Experimental: Tetracycline compounds were tested in an in vitro assay of ferric iron-induced lipid peroxidation among rat brain tissue.

[6] = system: CYP450; experiment: CYP450 inhibition or induction; assay type: in vitro ADME; settings: pre-clinical ADME studies
[7] = Metabolism; assay type: in vitro ADME; settings: pre-clinical ADME studies
[8] = system: MBP-induced EAE; experiment: MBP-induced Lewis rat EAE; assay type: in vivo; settings: i.p. daily from day 9
Description: as §1

[9] = Alkylperoxy radical scavenging assay (AIPH, AE-Trolox oxidation)
Experimental: In a separate assay, alkylperoxy radicals were generated in vitro using the radical generator AIPH (2,2′-azobis-[2-(2-imidazolyn-2-yl)-propane) and the ability of tetracyclines to scavenge these radicals was determined. […] Also, the ability of Compound 1 and minocycline to specifically scavenge peroxynitrite-carbonate radicals was determined.
In this study, alkylperoxy radicals were generated in vitro using the radical generator AIPH (2,2′-azobis-[2-(2-imidazolyn-2-yl)-propane) and the ability of tetracyclines, such as Compound 1, to scavenge these radicals was determined.
Trolox is a known scavenger of peroxyradicals. Structurally similar to a-tocopherol, Trolox reacts with peroxyradicals via a known mechanism with linear kinetics under excess oxygen conditions. In the presence of a competing antioxidant compound, the rate of Trolox oxidation will change based on the relative rate of oxidation and concentration of the competing antioxidant compound (Huang, et al., J. Agric. Food Chem. 2005, 25, 1841-1856). By measuring the effect of antioxidant concentration on the rate of degradation of Trolox, the relative antioxidant capacity of a compound can be determined. This principle is the basis of the widely used antioxidant capacity assay, ORAC (Huang, et al., J. Agric. Food Chem. 2002, 50, 1815-1821). Unlike ORAC which uses a fluorescent dye indicator, the assay described here directly measures the oxidation of the Trolox derivative, 2-aminoethyl-Trolox (AE-Trolox). This method eliminates interference of the fluorescent dye reaction by tetracycline compounds.
To the first column of a 96-well PCR plate (0.2 mL volume) was added 160 μL of TCWS. One well of the first column would equal one IC50 determination. […] To the remaining wells in columns 2-11 was added 80 μL of AET-WS. Using a multichannel pipettor, column 1 was serially diluted in 2-fold dilutions by removing 80 μL from column 1 and transferring with mixing to column 2. Column 2 was then diluted to column 3 and so on until column 11 where 80 μL of the diluted mixture was removed and discarded. Four wells of row 12 were designated as the 0 test compound/0 AIPH control to which 80 μL of AET-WS was added. One well of row 12 per test compound was designated as the 0 test compound control to which 80 μL of the AET-WS was added.
The plate was covered and incubated for 5 minutes at 37° C. upon which the reaction was initiated by addition of 20 μL of AIPH to columns 1-11 using a multichannel pipettor with mixing. The reaction was initiated similarly to the 0 test compound wells of column 12. To the 0 test compound/0 AIPH control wells was added 20 μL of PB buffer. The plate was incubated at 37° C. for 8 minutes (the reaction is linear for 10 minutes) and quenched by addition of 50 μL of AA to all wells with mixing. The plate was placed on ice for 5 minutes. Quenched assay mixtures were stable at room temperature for at least 24 hours.
Each reaction mixture was analyzed for AE-Trolox by 2D-LCMS on a Shimadzu 2010 equipped with a loading column (Shim-pack MAYI-ODS, 4.6×10 mm) and a gradient column Phenomenex Luna C18(2) column, 3 um, 4.6×50 mm. Using an automated 2-position swithching valve, samples were loaded onto the loading column by Pump C and washed for 1 minute with loading buffer. At 1 minute, the valve was switched to elution position (Position B, reversed flow through loading column) and the samples were eluted through the gradient column. The loading buffer (Buffer C) was 10% acetonitrile in water with 0.2% formic acid and the gradient buffers were water+0.2% formic acid (A buffer) and acetonitrile+0.2% formic acid (B buffer). Typical injection volumes were 30 μL.
From the TIC integration of AE-Trolox and AE-Trolox-d4, a ratio was calculated:
Ratio=AUCAE-Trolox/AUCAE-Trolox-d4
Percent inhibition of AE-Trolox oxidation (measured as disappearance of AE-Trolox) was then determined by:
% Inhibition=[1−((Ratio0−Ratiox)/(Ratioo−Ratiof))]*100

CCc1cc(N(C)C)c2c(c1O)C(=O)C1=C(O)[C@]3(O)C(=O)C(C(N)=O)=C(O)[C@@H](N(C)C)[C@@H]3C[C@@H]1C2 [Compound 1]
Effect on clinical course of EAE (onset, maximum disease severity) [1]: both delayed the onset and inhibited the maximum disease severity more potently than minocycline
Effects in genotoxicity [2]: no significant effects
Effects in hERG/ion channel assays [3]: no significant effects
Thyroid tissue staining ([4]; at comparable doses to minocycline): little or no thyroid tissue staining
Adverse effects ([4]; daily oral doses from 15 to 150 mg/kg for up to 4 weeks): Few adverse effects were observed at any dose
Lipid peroxidation (% of Control) ([5]; 1.0 μM): 92 % of Control
Lipid peroxidation (% of Control) ([5]; 10 μM): 68 % of Control
Lipid peroxidation (% of Control) ([5]; 100 μM): 56 % of Control
Effects in CYP450 inhibition or induction [6]: no significant effects
Effects in metabolism [7]: no significant effects
Effect on clinical course of EAE (onset, maximum disease severity) [8]: both delayed the onset and inhibited the maximum disease severity more potently than minocycline
pIC50 ([9]; 5 mM AIPH, 37° C., 8 minutes, read-out: IC50, inhibition of AE-Trolox oxidation (alkylperoxy radical scavenging)): 4.90
Percent Trolox Activity ([9]; relative to Trolox): 71%
Trolox Equivalents ([9]; relative to Trolox): 0.71
